Earlier results on five compounds are cited in patent US12296036B2, “Method for dyeing keratinous material, including the application of an organosilicon compound, a dyeing compound, a sealing reagent and an alkaline pre-treatment agent” (HENKEL AG & CO. KGAA, priority 2021, dated 2025).

Molecules are shown by their SMILES.

With `O=S(=O)([O-])c1ccc(N=Nc2c(O)ccc3ccccc23)cc1.[Na+]` [Acid Orange 7, sodium salt of 4-[(2-hydroxy-1-naphthyl)azo]benzene sulphonate], under “25° C.”, the solubility in water result is listed as “more than 7 g/L”.

For the compound `Nc1cc(S(=O)(=O)[O-])cc2cc(S(=O)(=O)[O-])c(N=Nc3ccccc3)c(O)c12.[Na+].[Na+]` [Acid Red 33, disodium salt of 5-amino-4-hydroxy-3-(phenylazo)-naphthalene-2,7-disulfonate], the solubility in water (25° C.) was 2500 µg/mL.

Take `CCN(Cc1cccc(S(=O)(=O)[O-])c1)c1ccc(C(=C2C=CC(=[N+](CC)Cc3cccc(S(=O)(=O)[O-])c3)C=C2)c2ccccc2S(=O)(=O)[O-])cc1.[Na+].[Na+]` [Acid Blue 9]: the water solubility entry (25° C.) is “more than 20 wt. %”.

As for `O=C([O-])c1c(Cl)c(Cl)c(Cl)c(Cl)c1-c1c2cc(Br)c(=O)c(Br)c-2oc2c(Br)c([O-])c(Br)cc12.[Na+].[Na+]` [Acid Red 92, disodium salt of 3,4,5,6-tetrachloro-2-(1,4,5,8-tetrabromo-6-hydroxy-3-oxanthene-9-yl) benzoic acid], the solubility in water entry (25° C.) is recorded as “greater than 10 g/L”.

With `O=C([O-])C1=NN(c2ccc(S(=O)(=O)[O-])cc2)C(=O)C1N=Nc1ccc(S(=O)(=O)[O-])cc1.[Na+].[Na+].[Na+]` (centres unmarked) [Acid Yellow 23, trisodium salt of 4,5-dihydro-5-oxo-1-(4-sulfophenyl)-4-((4-sulfophenyl)azo)-1H-pyrazole-3-carboxylic acid], the “solubility in water (in words)” value (in water at 25° C.) was “readily soluble”.
